Where two headings read alike, the source gives them in different places. Where only a bound is given, the exact number is not on record here.

For data set [1], the system named is PC3 cells (Prostrate Cancer). Put plainly: Anticancer (cytotoxic) activity, MTT colorimetric assay. The note with it: compounds 1-30 μM, n = 3, read-out: Anticancer activity (PC-3 cell line) IC50 ± SEM. In kind it is cell-based. The method, then:
(§1) Various In vitro assays were performed to the assessment of biological activity of newly synthesized compounds. Results were presented here as means ± standard error from triplicate (n = 3) observation. IC50 values were calculated by using EZ-FIT, Enzyme kinetics software by Perrella Scientific.
Cytotoxic activity of compounds was evaluated in 96-well flat-bottomed microplates by using the standard MTT (3-[4, 5-dimethylthiazole-2-yl]-2, 5-diphenyl-tetrazolium bromide, MP) colorimetric assay. For this purpose, PC3 cells (Prostrate Cancer) were cultured in Dulbecco’s Modified Eagle Medium, supplemented with 10% of fetal bovine serum (FBS, PAA), 100 IU/mL of penicillin and 100 μ g/mL of streptomycin in 75 cm^2 flasks, and kept in 5% CO2 incubator at 37°C. Exponentially growing cells were harvested, counted with haemocytometer and diluted with a particular medium with 5% FBS. Cell culture with the concentration of 1x10^5 cells/mL was prepared and introduced (100 μL/well) into 96-well plates. After overnight incubation, medium was removed and 200 μL of fresh medium was added with different concentrations of compounds (1-30 μM). Stock solution, 20 mM of compounds were prepared in 100% DMSO and final concentration of DMSO at 30 μM is 0.15% .After 48 hrs, 200 μL MTT (0.5 mg/mL) was added to each well and incubated further for 4 hrs. Subsequently, 100 μL of DMSO was added to each well. The extent of MTT reduction to formazan within cells was calculated by measuring the absorbance at 570 nm, using a micro plate reader (Spectra Max plus, Molecular Devices, CA, USA). The cytotoxicity was recorded as concentration causing 50% growth inhibition (IC50) for PC3 cells. The percent inhibition was calculated by using the following formula:
% inhibition = 100-((mean of O.D of test compound – mean of O.D of negative control)/ (mean of O.D of positive control – mean of O.D of negative control)*100).
The results (% inhibition) were processed by using Soft- Max Pro software (Molecular Device, USA).
(In general: Formazan colour is commonly taken as a measure of viable cells.)

For data set [2], the target named is T1, β-Glucuronidase (Escherichia coli, UniProt P05804).
T1 construct: purchased Sigma Aldrich G7396-25KU
Put plainly: In vitro β-glucuronidase inhibition assay. In kind it is biochemical. Conditions: p-nitrophenyl-β-D-glucuronide substrate, 37°C, 405 nm; NA = not active, failed to show 50% or more inhibition at 500 μM or more; read-out: ß-Glucuronidase inhibition IC50 ± SEM. The protocol:
as §1
β-Glucuronidase inhibitory activity was determined by the spectrophotometric method by measuring the absorbance at 405 nm of p-nitrophenol formed from the substrate (p-nitrophenyl-β-D-glucuronide N1627-250 mg (Sigma Aldrich). The total reaction volume was 250 μL. The compound (5 μL) was dissolved in DMSO (100%), which becomes 2% in the ultimate assay (250 μL) and the similar conditions were used for standard (D-saccharic acid 1, 4-lactone, Sigma Aldrich). The reaction mixture contained 185 μL of 0.1 M acetate buffer, 5 μL of test compound solution, 10 μL of (1U) enzyme solution (G7396-25KU, Sigma Aldrich) was incubated at 37°C for 30 min. The plates were read on a multiplate reader (SpectraMax plus 384) at 405 nm after the addition of 50 μL of 0.4 mM p-nitrophenyl-β-D-glucuronide. All assays were performed in triplicate. IC50 Values were calculated by using EZ-Fit software (Perrella Scientific Inc., Amherst, MA, U.S.A.). These values are the mean of three independent readings.

Data set [3] in a line: DPPH radical scavenging antioxidant assay. The note with it: DPPH 300 μM, half an hour at 37°C, 515 nm, NA = not active, failed to show 50% or more inhibition at 500 μM or more, read-out: DPPH radical scavenging assay IC50 ± SEM. The method, then: as §1
Test samples were allowed to react with stable free radical, 1, 1-diphenyl-2-picrylhydrazyl radical (DPPH, Wako Chemicals USA, Inc.)) for half an hour at 37°C. Various concentrations of test samples (prepared in DMSO) were incubated with DPPH (300 μM; prepared in ethanol). After incubation, decrease in absorption was measured at 515 nm using a microplate reader (SpectraMax plus 384). Percentage radical scavenging activity (% RSA) by samples was determined, in comparison with a DMSO- treated control group.% Radical scavenging activity was calculated by using the formula given in statistical analysis section.

T1 sequence (P05804 whole entry): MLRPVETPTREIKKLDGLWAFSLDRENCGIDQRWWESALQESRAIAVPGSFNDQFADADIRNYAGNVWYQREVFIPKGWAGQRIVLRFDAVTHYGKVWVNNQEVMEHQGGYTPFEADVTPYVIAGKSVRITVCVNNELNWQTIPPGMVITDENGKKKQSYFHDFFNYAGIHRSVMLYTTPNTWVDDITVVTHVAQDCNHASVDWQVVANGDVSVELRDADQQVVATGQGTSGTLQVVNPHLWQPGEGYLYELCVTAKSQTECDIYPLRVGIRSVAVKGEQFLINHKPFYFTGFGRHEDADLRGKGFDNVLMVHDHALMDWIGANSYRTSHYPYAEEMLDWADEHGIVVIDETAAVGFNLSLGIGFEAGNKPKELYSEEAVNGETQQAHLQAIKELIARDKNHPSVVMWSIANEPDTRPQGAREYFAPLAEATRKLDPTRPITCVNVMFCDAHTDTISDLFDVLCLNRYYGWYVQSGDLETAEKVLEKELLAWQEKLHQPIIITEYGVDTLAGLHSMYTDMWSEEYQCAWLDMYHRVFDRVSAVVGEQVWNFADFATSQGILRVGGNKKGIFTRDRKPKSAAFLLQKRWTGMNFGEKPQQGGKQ

`Cc1c(-c2csc(CC#N)n2)sc2sc(-c3csc(CC#N)n3)c(-c3ccccc3)c12` [Compound 3, 2,2'-(4,4'-(3-Methyl-4-phenylthieno[2,3-b]thiophene-2,5-diyl)bis(thiazole-4,2-diyl)) diacetonitrile] registered a melting point greater than 320 °C. The IC50 in data set [1] (Homo sapiens, PC-3, 48 h) was greater than 30 µM.
In the same order, the values of `Cc1c(-c2csc(C(C#N)=Cc3ccccc3)n2)sc2sc(-c3csc(C(C#N)=Cc4ccccc4)n3)c(-c3ccccc3)c12` [Compound 4a, 2-(4-(5-(2-(1-Cyano-2-phenylvinyl)thiazol-4-yl)-3-methyl-4-phenylthieno[2,3-b]thiophen-2-yl)thiazol-2-yl)-3-phenylacrylonitrile] are 220 to 221 °C and greater than 30 µM.
In the same order, the values of `Cc1c(-c2csc(C(C#N)=Cc3ccc(Cl)cc3)n2)sc2sc(-c3csc(C(C#N)=Cc4ccc(Cl)cc4)n3)c(-c3ccccc3)c12` [Compound 4b, 3-(4-Chlorophenyl)-2-(4-(5-(2-(2-(4-chlorophenyl)-1-cyanovinyl)thiazol-4-yl)-3-methyl-4-phenylthieno[2,3-b]thiophen-2-yl)thiazol-2-yl)acrylonitrile] are 167 to 168 °C and greater than 30 µM.
Consider `COc1ccc(C=C(C#N)c2nc(-c3sc4sc(-c5csc(C(C#N)=Cc6ccc(OC)cc6)n5)c(-c5ccccc5)c4c3C)cs2)cc1` [Compound 4c, 2-(4-(5-(2-(1-Cyano-2-(4-methoxyphenyl)vinyl)thiazol-4-yl)-3-methyl-4-phenylthieno[2,3-b]thiophen-2-yl)thiazol-2-yl)-3-(4-methoxyphenyl)acrylonitrile], for which the melting point was in the range of 238 to 239 °C.
`Cc1c(C2=C(C#N)C=NC2)sc2sc(C3=C(C#N)C=NC3)c(-c3ccccc3)c12` [Compound 5, 3-(5-(4-Cyano-2H-pyrrol-3-yl)-3-methyl-4-phenylthieno[2,3-b]thiophen-2-yl)-2H-pyrrole-4-carbonitrile] had a melting point greater than 320 °C. The IC50 in data set [1] (Homo sapiens, PC-3, 48 h) was greater than 30 µM. The IC50 in data set [2] came to 0.13 ± 0.019 µM.
In the case of `Cc1c(-c2cn3c(nc4ccccc43)[nH]2)sc2sc(-c3cn4c(nc5ccccc54)[nH]3)c(-c3ccccc3)c12` [Compound 6, 5,5'-(3-Methyl-4-phenylthieno[2,3-b]thiophene-2,5-diyl)bis(1H-imidazo[1,2a]benzimidazole)], the melting point is greater than 320 °C.
Same read-out and setting: the figure for `Cc1c(-c2cn3[nH]cnc3n2)sc2sc(-c3cn4[nH]cnc4n3)c(-c3ccccc3)c12` [Compound 7, 5,5'-(3-Methyl-4-phenylthieno[2,3-b]thiophene-2,5-diyl)bis(1H-imidazo[1,2-b] [1,2, 4]triazole)] is greater than 320 °C.
`Cc1c(-c2coc(N)n2)sc2sc(-c3coc(N)n3)c(-c3ccccc3)c12` [Compound 8a, 4,4'-(3-Methyl-4-phenylthieno[2,3-b]thiophene-2,5-diyl)dioxazol-2-amine] had a melting point greater than 320 °C. Moreover, the half-maximal inhibitory concentration (IC50) in data set [1] (Homo sapiens, PC-3, 48 h) was greater than 30 µM. In addition, the 50% inhibitory concentration (IC50) in data set [2] was 1.2 ± 0.0785 µM.
For `Cc1c(-c2csc(N)n2)sc2sc(-c3csc(N)n3)c(-c3ccccc3)c12` [Compound 8b, 4,4'-(3-Methyl-4-phenylthieno[2,3-b]thiophene-2,5-diyl)dithiazol-2-amine], the melting point was in the range of 260 to 261 °C. The IC50 in data set [1] (Homo sapiens, PC-3, 48 h) is 24.2 ± 0.29 µM.
In the case of `Cc1c(-c2c[nH]c(N)n2)sc2sc(-c3c[nH]c(N)n3)c(-c3ccccc3)c12` [Compound 8c, 4,4'-(3-Methyl-4-phenylthieno[2,3-b]thiophene-2,5-diyl)bis(1H-imidazol-2-amine)], the melting point is greater than 320 °C.
Compound `Cc1c(C(=O)CNc2ccccc2)sc2sc(C(=O)CNc3ccccc3)c(-c3ccccc3)c12` [Compound 9a, 1,1'-(3-Methyl-4-phenylthieno[2,3-b]thiophene-2,5-diyl)bis(2-(phenylamino)ethanone)] yielded a melting point greater than 320 °C. In data set [1] (Homo sapiens, PC-3, 48 h), the 50% inhibitory concentration (IC50) is greater than 30 µM.
The corresponding values for `Cc1c(C(=O)CNc2ccc(Cl)cc2)sc2sc(C(=O)CNc3ccc(Cl)cc3)c(-c3ccccc3)c12` [Compound 9b, 1,1'-(3-Methyl-4-phenylthieno[2,3-b]thiophene-2,5-diyl)bis(2-(4-chlorophenylamino)ethanone)] are greater than 320 °C and greater than 30 µM.
On to `O=C(O)[C@@H](O)[C@H]1OC(=O)[C@H](O)[C@H]1O` [D-Saccharic acid 1,4-lactone, reference compound], for which the half-inhibitory concentration (IC50) in data set [2] came out at 45.8 µM.
For the compound `COc1cccc2c1C(=O)c1c(O)c3c(c(O)c1C2=O)C[C@@](O)(C(=O)CO)C[C@@H]3O[C@H]1C[C@H](N)[C@H](O)[C@H](C)O1` [Doxorubicin, reference compound], the IC50 came to 0.91 µM in data set [1] (48 hrs) and 0.912 ± 0.12 µM in data set [1] (Homo sapiens, PC-3, 48 h).
Turning to `CC(=O)N[C@@H](CS)C(=O)O` [N-Acetylcysteine], the IC50 in data set [3] (listed as N-acetylcystein) is 106 ± 1.1 µM; in data set [3] it was 106 µM.

By IC50 is commonly meant the point on the concentration scale where inhibition reaches its midpoint. Broadly, the melting point is the temperature, or range, at which the solid turns liquid.

Source of the values: publication PMC3728144, “Synthesis, reactions and biological activity of some new bis-heterocyclic ring compounds containing sulphur atom” (Chemistry Central Journal, 2013).
